In PubChem BioAssay AID1745844 (Carcinogenic Potency Database (CPDB), 2022):
Values joined by “and” are separate entries in the source; they are usually repeats but may differ in a detail not shown here. Equal values may be shown once. Active and inactive are the calls of the source. How the calls were made is not given here.

System: rodent lifetime carcinogenesis bioassay, tumor incidence TD50
Test: chronic cancer bioassays in animals – CPDB, compiled studies (AID 1745844)

CC1CCC(C(C)C)C(O)C1 (configuration not stated)
carcinogen call (mouse, strain B6C3F1, females, in feed, site: any site (literature study), lesion: several types, types named in the paper, dosed 103 weeks, study length 104 weeks): negative (inactive) | TD50 (mouse, strain B6C3F1, females, in feed, site: liver, lesion: hepatocellular adenoma + hepatocellular carcinoma + neoplastic nodule, dosed 103 weeks, study length 104 weeks): 5190 mg/kg/day | TD50 (mouse, strain B6C3F1, females, in feed, site: lung, lesion: alveolar/bronchiolar adenoma + alveolar/bronchiolar carcinoma, dosed 103 weeks, study length 104 weeks): 3170 mg/kg/day | TD50 (mouse, strain B6C3F1, males, in feed, site: any site (literature study), lesion: several types, types named in the paper, dosed 103 weeks, study length 104 weeks): 2750 mg/kg/day (inactive) | TD50 (mouse, strain B6C3F1, males, in feed, site: liver, lesion: hepatocellular adenoma + hepatocellular carcinoma + neoplastic nodule, dosed 103 weeks, study length 104 weeks): 1960 mg/kg/day | carcinogen call (rat, strain Fischer 344, females, in feed, site: any site (literature study), lesion: several types, types named in the paper, dosed 103 weeks, study length 105 weeks): negative (inactive) | TD50 (rat, strain Fischer 344, males, in feed, site: any site (literature study), lesion: several types, types named in the paper, dosed 103 weeks, study length 105 weeks): 1410 mg/kg/day (inactive) | TD50 (rat, strain Fischer 344, males, in feed, site: liver, lesion: hepatocellular adenoma + hepatocellular carcinoma + neoplastic nodule, dosed 103 weeks, study length 105 weeks): 5690 mg/kg/day

S=C(SN1CCOCC1)N1CCOCC1
TD50 (rat, strain Sprague-Dawley, females, in feed, site: kidney, lesion: several types, types named in the paper, dosed 112 weeks, study length 112 weeks): 338 mg/kg/day | TD50 (rat, strain Sprague-Dawley, females, in feed, site: kidney, lesion: squamous-cell carcinoma, dosed 112 weeks, study length 112 weeks): 571 mg/kg/day | TD50 (rat, strain Sprague-Dawley, females, in feed, site: kidney, lesion: urothelial carcinoma, dosed 112 weeks, study length 112 weeks): 571 mg/kg/day | TD50 (rat, strain Sprague-Dawley, females, in feed, site: kidney, lesion: urothelial papilloma, dosed 112 weeks, study length 112 weeks): 1740 mg/kg/day | TD50 (rat, strain Sprague-Dawley, females, in feed, site: urinary bladder, lesion: several types, types named in the paper, dosed 112 weeks, study length 112 weeks): 206 mg/kg/day | TD50 (rat, strain Sprague-Dawley, females, in feed, site: urinary bladder, lesion: squamous-cell carcinoma, dosed 112 weeks, study length 112 weeks): 1740 mg/kg/day | TD50 (rat, strain Sprague-Dawley, females, in feed, site: urinary bladder, lesion: squamous-cell papilloma, dosed 112 weeks, study length 112 weeks): 862 mg/kg/day | TD50 (rat, strain Sprague-Dawley, females, in feed, site: urinary bladder, lesion: urothelial carcinoma, dosed 112 weeks, study length 112 weeks): 862 mg/kg/day | TD50 (rat, strain Sprague-Dawley, females, in feed, site: urinary bladder, lesion: urothelial papilloma, dosed 112 weeks, study length 112 weeks): 571 mg/kg/day | TD50 (rat, strain Sprague-Dawley, females, in feed, site: urinary tract, lesion: several types, types named in the paper, dosed 112 weeks, study length 112 weeks): 96.9 mg/kg/day | TD50 (rat, strain Sprague-Dawley, males, in feed, site: kidney, lesion: several types, types named in the paper, dosed 112 weeks, study length 112 weeks): 528 mg/kg/day | TD50 (rat, strain Sprague-Dawley, males, in feed, site: kidney, lesion: squamous-cell carcinoma, dosed 112 weeks, study length 112 weeks): 1390 mg/kg/day | TD50 (rat, strain Sprague-Dawley, males, in feed, site: kidney, lesion: urothelial carcinoma, dosed 112 weeks, study length 112 weeks): 690 mg/kg/day | TD50 (rat, strain Sprague-Dawley, males, in feed, site: urinary bladder, lesion: several types, types named in the paper, dosed 112 weeks, study length 112 weeks): 130 mg/kg/day | TD50 (rat, strain Sprague-Dawley, males, in feed, site: urinary bladder, lesion: squamous-cell carcinoma, dosed 112 weeks, study length 112 weeks): 690 mg/kg/day | TD50 (rat, strain Sprague-Dawley, males, in feed, site: urinary bladder, lesion: squamous-cell papilloma, dosed 112 weeks, study length 112 weeks): 1390 mg/kg/day | TD50 (rat, strain Sprague-Dawley, males, in feed, site: urinary bladder, lesion: urothelial carcinoma, dosed 112 weeks, study length 112 weeks): 340 mg/kg/day | TD50 (rat, strain Sprague-Dawley, males, in feed, site: urinary bladder, lesion: urothelial papilloma, dosed 112 weeks, study length 112 weeks): 457 mg/kg/day | TD50 (rat, strain Sprague-Dawley, males, in feed, site: urinary tract, lesion: several types, types named in the paper, dosed 112 weeks, study length 112 weeks): 85.5 mg/kg/day

O=C(O)c1cc(Oc2ccc(C(F)(F)F)cc2Cl)ccc1[N+](=O)[O-]
TD50 (mouse, strain B6C3F1, females, in feed, site: liver, lesion: hepatocellular adenoma, dosed 78 weeks, study length 78 weeks): 434 mg/kg/day | TD50 (mouse, strain B6C3F1, females, in feed, site: liver, lesion: hepatocellular carcinoma, dosed 78 weeks, study length 78 weeks): 1380 mg/kg/day | TD50 (mouse, strain B6C3F1, females, in feed, site: liver, lesion: several types, types named in the paper, dosed 78 weeks, study length 78 weeks): 328 mg/kg/day | TD50 (mouse, strain B6C3F1, females, in feed, site: stomach, lesion: papilloma, dosed 78 weeks, study length 78 weeks): 1050 mg/kg/day | TD50 (mouse, strain B6C3F1, males, in feed, site: liver, lesion: hepatocellular adenoma, dosed 78 weeks, study length 78 weeks): 331 mg/kg/day | TD50 (mouse, strain B6C3F1, males, in feed, site: liver, lesion: hepatocellular carcinoma, dosed 78 weeks, study length 78 weeks): 395 mg/kg/day | TD50 (mouse, strain B6C3F1, males, in feed, site: liver, lesion: several types, types named in the paper, dosed 78 weeks, study length 78 weeks): 149 mg/kg/day | TD50 (mouse, strain B6C3F1, males, in feed, site: stomach, lesion: papilloma, dosed 78 weeks, study length 78 weeks): 2050 mg/kg/day | TD50 (mouse, strain Charles River CD1, females, in feed, site: liver, lesion: hepatocellular adenoma, dosed 104 weeks, study length 104 weeks): 160 mg/kg/day | TD50 (mouse, strain Charles River CD1, females, in feed, site: liver, lesion: hepatocellular carcinoma, dosed 104 weeks, study length 104 weeks): 715 mg/kg/day | TD50 (mouse, strain Charles River CD1, females, in feed, site: liver, lesion: several types, types named in the paper, dosed 104 weeks, study length 104 weeks): 126 mg/kg/day | TD50 (mouse, strain Charles River CD1, males, in feed, site: liver, lesion: hepatocellular adenoma, dosed 104 weeks, study length 104 weeks): 187 mg/kg/day | TD50 (mouse, strain Charles River CD1, males, in feed, site: liver, lesion: hepatocellular carcinoma, dosed 104 weeks, study length 104 weeks): 307 mg/kg/day | TD50 (mouse, strain Charles River CD1, males, in feed, site: liver, lesion: several types, types named in the paper, dosed 104 weeks, study length 104 weeks): 93.8 mg/kg/day

CCN(CC)CCOc1ccc(C(O)(Cc2ccc(OC)cc2)c2ccccc2)cc1 (configuration not stated)
carcinogen call (rat, strain Not specified, females, by gavage, site: mammary tissue, wider than the gland, lesion: one or several types, types not named, dosed 52 weeks, study length 52 weeks): negative (inactive)

C=C/C=N/O
TD50 (rat, strain Fischer 344, females, in drinking water, site: liver, lesion: hepatocellular carcinoma, dosed 104 weeks, study length 129 weeks): 104 mg/kg/day | TD50 (rat, strain Fischer 344, females, in drinking water, site: liver, lesion: hyperplastic nodule, dosed 30 weeks, study length 123 weeks): 41.9 mg/kg/day | TD50 (rat, strain Fischer 344, females, in drinking water, site: liver, lesion: hyperplastic nodule, dosed 104 weeks, study length 129 weeks): 43.8 mg/kg/day | TD50 (rat, strain Fischer 344, females, in drinking water, site: liver, lesion: several types, types named in the paper, dosed 104 weeks, study length 129 weeks): 27.1 mg/kg/day | TD50 (rat, strain Fischer 344, males, in drinking water, site: liver, lesion: hepatocellular carcinoma, dosed 30 weeks, study length 123 weeks): 50.7 mg/kg/day | TD50 (rat, strain Fischer 344, males, in drinking water, site: liver, lesion: hepatocellular carcinoma, dosed 104 weeks, study length 128 weeks): 72.6 mg/kg/day | TD50 (rat, strain Fischer 344, males, in drinking water, site: liver, lesion: hyperplastic nodule, dosed 30 weeks, study length 123 weeks): 29.3 mg/kg/day | TD50 (rat, strain Fischer 344, males, in drinking water, site: liver, lesion: hyperplastic nodule, dosed 104 weeks, study length 128 weeks): 64.9 mg/kg/day | TD50 (rat, strain Fischer 344, males, in drinking water, site: liver, lesion: several types, types named in the paper, dosed 30 weeks, study length 123 weeks): 16.4 mg/kg/day | TD50 (rat, strain Fischer 344, males, in drinking water, site: liver, lesion: several types, types named in the paper, dosed 104 weeks, study length 128 weeks): 30.4 mg/kg/day

Nc1ccc(Oc2ccc(Cl)cc2)cc1
TD50 (mouse, strain CD-1 HaM/ICR, females, in feed, site: all sites, lesion: all vascular tumors, dosed 68 weeks, study length 86 weeks): 346 mg/kg/day | TD50 (mouse, strain CD-1 HaM/ICR, females, in feed, site: any site (literature study), lesion: several types, types named in the paper, dosed 68 weeks, study length 86 weeks): 598 mg/kg/day | TD50 (mouse, strain CD-1 HaM/ICR, females, in feed, site: liver, lesion: several types, types named in the paper, dosed 68 weeks, study length 86 weeks): 905 mg/kg/day | TD50 (mouse, strain CD-1 HaM/ICR, females, in feed, site: urinary bladder, lesion: several types, types named in the paper, dosed 68 weeks, study length 86 weeks): 1130 mg/kg/day | carcinogen call (mouse, strain CD-1 HaM/ICR, males, in feed, site: any site (literature study), lesion: several types, types named in the paper, dosed 51 weeks, study length 55 weeks): negative (inactive) | carcinogen call (mouse, strain CD-1 HaM/ICR, males, in feed, site: liver, lesion: several types, types named in the paper, dosed 51 weeks, study length 55 weeks): negative (inactive) | carcinogen call (mouse, strain CD-1 HaM/ICR, males, in feed, site: lung, lesion: several types, types named in the paper, dosed 51 weeks, study length 55 weeks): negative (inactive) | TD50 (rat, strain Charles River CD (Sprague-Dawley), males, in feed, site: any site (literature study), lesion: several types, types named in the paper, dosed 77 weeks, study length 98 weeks): 25.1 mg/kg/day | TD50 (rat, strain Charles River CD (Sprague-Dawley), males, in feed, site: liver, lesion: hepatoma, dosed 77 weeks, study length 98 weeks): 37.9 mg/kg/day and 37.6 mg/kg/day | TD50 (rat, strain Charles River CD (Sprague-Dawley), males, in feed, site: liver, lesion: several types, types named in the paper, dosed 77 weeks, study length 98 weeks): 37.9 mg/kg/day

C=CCN(N)CC=C
TD50 (mouse, strain Swiss albino, females, in drinking water, site: forestomach, lesion: squamous-cell papilloma, dosed 100 weeks, study length 100 weeks): 332 mg/kg/day | carcinogen call (mouse, strain Swiss albino, females, in drinking water, site: liver, lesion: angioma, dosed 100 weeks, study length 100 weeks): negative (inactive) | carcinogen call (mouse, strain Swiss albino, females, in drinking water, site: liver, lesion: angiosarcoma, dosed 100 weeks, study length 100 weeks): negative (inactive) | TD50 (mouse, strain Swiss albino, females, in drinking water, site: lung, lesion: adenocarcinoma, dosed 100 weeks, study length 100 weeks): 112 mg/kg/day | TD50 (mouse, strain Swiss albino, females, in drinking water, site: lung, lesion: adenoma, dosed 100 weeks, study length 100 weeks): 37.8 mg/kg/day | TD50 (mouse, strain Swiss albino, females, in drinking water, site: lung, lesion: several types, types named in the paper, dosed 100 weeks, study length 100 weeks): 34.9 mg/kg/day | TD50 (mouse, strain Swiss albino, males, in drinking water, site: forestomach, lesion: squamous-cell papilloma, dosed 93 weeks, study length 93 weeks): 48.1 mg/kg/day | carcinogen call (mouse, strain Swiss albino, males, in drinking water, site: liver, lesion: angioma, dosed 93 weeks, study length 93 weeks): negative (inactive) | TD50 (mouse, strain Swiss albino, males, in drinking water, site: liver, lesion: angiosarcoma, dosed 93 weeks, study length 93 weeks): 723 mg/kg/day (inactive) | TD50 (mouse, strain Swiss albino, males, in drinking water, site: lung, lesion: adenocarcinoma, dosed 93 weeks, study length 93 weeks): 38.9 mg/kg/day | TD50 (mouse, strain Swiss albino, males, in drinking water, site: lung, lesion: adenoma, dosed 93 weeks, study length 93 weeks): 29.8 mg/kg/day | TD50 (mouse, strain Swiss albino, males, in drinking water, site: lung, lesion: several types, types named in the paper, dosed 93 weeks, study length 93 weeks): 25.7 mg/kg/day

COc1cc(C=NNC(=O)c2ccncc2)ccc1O
TD50 (mouse, strain Not specified, both sexes, by gavage, site: any site (literature study), lesion: several types, types named in the paper, dosed 52 weeks, study length 52 weeks): 27.4 mg/kg/day | TD50 (mouse, strain Not specified, both sexes, by gavage, site: lung, lesion: adenocarcinoma, dosed 52 weeks, study length 52 weeks): 45 mg/kg/day | TD50 (mouse, strain Not specified, both sexes, by gavage, site: mammary gland, lesion: adenocarcinoma, dosed 52 weeks, study length 52 weeks): 86.6 mg/kg/day
